Measurements reported in ChEMBL document CHEMBL1212808, “The p110 delta structure: mechanisms for selectivity and potency of new PI(3)K inhibitors” (Nat Chem Biol, 2010).

Assays:
[1] = molecular target: Phosphatidylinositol 4,5-bisphosphate 3-kinase catalytic subunit alpha isoform (Homo sapiens, UniProt P42336); assay: Inhibition of p110alpha
[2] = molecular target: Phosphatidylinositol 4,5-bisphosphate 3-kinase catalytic subunit gamma isoform (Homo sapiens, UniProt P48736); assay: Inhibition of p110gamma
Phosphatidylinositol 4,5-bisphosphate 3-kinase catalytic subunit gamma isoform, sequence (P48736 whole entry, canonical isoform): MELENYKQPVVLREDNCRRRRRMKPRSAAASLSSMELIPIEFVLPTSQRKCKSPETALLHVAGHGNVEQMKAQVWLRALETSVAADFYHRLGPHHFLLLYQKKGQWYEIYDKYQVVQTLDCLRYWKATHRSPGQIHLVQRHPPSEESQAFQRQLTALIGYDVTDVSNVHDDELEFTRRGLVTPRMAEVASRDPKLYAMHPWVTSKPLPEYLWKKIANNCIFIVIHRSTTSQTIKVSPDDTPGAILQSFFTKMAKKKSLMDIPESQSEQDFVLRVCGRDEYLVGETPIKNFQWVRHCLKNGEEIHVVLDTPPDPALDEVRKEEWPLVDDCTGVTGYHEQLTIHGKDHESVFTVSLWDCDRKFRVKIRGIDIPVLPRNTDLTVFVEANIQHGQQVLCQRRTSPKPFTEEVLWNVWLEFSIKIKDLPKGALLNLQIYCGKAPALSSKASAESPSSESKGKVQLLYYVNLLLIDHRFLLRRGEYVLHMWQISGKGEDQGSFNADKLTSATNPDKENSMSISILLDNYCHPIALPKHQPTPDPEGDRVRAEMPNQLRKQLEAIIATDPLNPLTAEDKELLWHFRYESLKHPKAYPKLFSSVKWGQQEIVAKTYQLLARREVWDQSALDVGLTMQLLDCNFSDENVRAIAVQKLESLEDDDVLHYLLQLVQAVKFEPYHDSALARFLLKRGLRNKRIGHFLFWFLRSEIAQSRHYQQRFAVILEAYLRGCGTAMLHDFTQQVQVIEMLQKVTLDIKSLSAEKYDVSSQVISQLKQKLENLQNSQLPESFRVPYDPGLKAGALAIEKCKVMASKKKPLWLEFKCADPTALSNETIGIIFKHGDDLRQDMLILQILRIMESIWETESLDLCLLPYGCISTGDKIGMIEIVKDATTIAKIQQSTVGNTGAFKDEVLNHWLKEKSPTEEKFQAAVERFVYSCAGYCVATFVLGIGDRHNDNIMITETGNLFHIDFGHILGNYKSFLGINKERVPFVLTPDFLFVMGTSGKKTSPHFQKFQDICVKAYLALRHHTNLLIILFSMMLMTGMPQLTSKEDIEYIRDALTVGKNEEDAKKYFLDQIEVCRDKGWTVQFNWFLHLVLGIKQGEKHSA

[3] = molecular target: Phosphatidylinositol 4,5-bisphosphate 3-kinase catalytic subunit beta isoform (Homo sapiens, UniProt P42338); assay: Inhibition of p110beta
Phosphatidylinositol 4,5-bisphosphate 3-kinase catalytic subunit beta isoform, sequence (P42338 whole entry, canonical isoform): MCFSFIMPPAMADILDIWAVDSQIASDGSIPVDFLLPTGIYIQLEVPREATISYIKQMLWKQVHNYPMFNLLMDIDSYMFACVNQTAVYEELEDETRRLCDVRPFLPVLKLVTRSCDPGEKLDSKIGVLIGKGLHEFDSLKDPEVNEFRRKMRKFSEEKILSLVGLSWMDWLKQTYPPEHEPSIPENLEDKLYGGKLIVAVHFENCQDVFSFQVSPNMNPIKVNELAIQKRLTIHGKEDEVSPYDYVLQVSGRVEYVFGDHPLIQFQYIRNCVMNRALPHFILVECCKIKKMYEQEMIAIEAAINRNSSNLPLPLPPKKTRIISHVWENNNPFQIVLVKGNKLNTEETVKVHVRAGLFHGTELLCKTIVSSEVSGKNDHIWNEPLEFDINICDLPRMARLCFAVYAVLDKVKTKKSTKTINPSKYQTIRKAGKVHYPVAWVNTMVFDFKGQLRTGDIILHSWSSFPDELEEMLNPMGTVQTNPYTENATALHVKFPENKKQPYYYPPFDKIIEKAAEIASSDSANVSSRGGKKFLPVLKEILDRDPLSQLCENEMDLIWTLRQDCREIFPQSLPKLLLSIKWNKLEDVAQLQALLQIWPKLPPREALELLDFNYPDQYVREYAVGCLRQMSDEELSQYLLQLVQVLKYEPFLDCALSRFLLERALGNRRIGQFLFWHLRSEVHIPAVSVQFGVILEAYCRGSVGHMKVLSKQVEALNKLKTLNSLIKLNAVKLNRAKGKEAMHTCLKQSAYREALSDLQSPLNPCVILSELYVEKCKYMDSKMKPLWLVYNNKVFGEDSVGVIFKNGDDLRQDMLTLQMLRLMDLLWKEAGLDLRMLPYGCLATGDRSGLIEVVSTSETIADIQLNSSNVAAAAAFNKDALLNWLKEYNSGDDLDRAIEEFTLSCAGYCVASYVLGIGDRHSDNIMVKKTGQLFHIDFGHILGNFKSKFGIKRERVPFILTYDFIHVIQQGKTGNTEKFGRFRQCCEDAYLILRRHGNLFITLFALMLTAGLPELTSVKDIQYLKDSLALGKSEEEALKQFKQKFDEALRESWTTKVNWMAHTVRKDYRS

Phosphatidylinositol 4,5-bisphosphate 3-kinase catalytic subunit alpha isoform, sequence (P42336 whole entry, canonical isoform): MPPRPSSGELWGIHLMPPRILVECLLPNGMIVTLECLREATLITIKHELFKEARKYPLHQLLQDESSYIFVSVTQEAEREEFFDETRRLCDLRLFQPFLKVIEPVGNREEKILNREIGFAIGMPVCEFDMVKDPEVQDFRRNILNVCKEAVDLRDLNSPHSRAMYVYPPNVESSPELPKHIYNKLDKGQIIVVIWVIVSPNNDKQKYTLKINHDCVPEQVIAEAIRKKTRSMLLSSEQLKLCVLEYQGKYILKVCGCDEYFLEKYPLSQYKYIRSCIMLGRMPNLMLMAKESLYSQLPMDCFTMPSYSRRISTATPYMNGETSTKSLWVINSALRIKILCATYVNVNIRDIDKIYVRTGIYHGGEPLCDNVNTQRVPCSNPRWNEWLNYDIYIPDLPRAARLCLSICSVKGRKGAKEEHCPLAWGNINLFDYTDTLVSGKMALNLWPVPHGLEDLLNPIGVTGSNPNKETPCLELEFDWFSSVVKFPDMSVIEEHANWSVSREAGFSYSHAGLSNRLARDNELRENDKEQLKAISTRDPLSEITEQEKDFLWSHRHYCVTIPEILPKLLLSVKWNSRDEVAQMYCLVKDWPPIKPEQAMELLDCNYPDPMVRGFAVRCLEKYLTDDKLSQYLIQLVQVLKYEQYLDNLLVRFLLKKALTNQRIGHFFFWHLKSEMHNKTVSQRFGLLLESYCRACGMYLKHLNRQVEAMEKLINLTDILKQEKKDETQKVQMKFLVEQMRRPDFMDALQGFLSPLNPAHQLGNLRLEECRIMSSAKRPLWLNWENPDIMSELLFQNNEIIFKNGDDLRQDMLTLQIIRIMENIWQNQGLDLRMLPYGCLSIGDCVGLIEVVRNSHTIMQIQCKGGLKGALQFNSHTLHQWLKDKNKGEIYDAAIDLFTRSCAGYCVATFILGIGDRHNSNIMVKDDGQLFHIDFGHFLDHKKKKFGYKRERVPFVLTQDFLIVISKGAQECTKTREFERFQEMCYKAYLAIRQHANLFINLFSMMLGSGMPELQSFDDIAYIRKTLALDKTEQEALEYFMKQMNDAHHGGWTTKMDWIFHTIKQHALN

| SMILES | IC50 [1] [µM] | IC50 [2] [µM] | IC50 [3] [µM] |
| --- | --- | --- | --- |
| CC(C)n1nc(C#Cc2cccnc2)c2c(N)ncnc21 | 0.053 | 0.113 | 0.664 |
| CC(C)n1nc(C#Cc2cccc(O)c2)c2c(N)ncnc21 | 0.034 | 0.069 | 0.316 |
| COc1cc(Nc2nc3ccccc3nc2NS(=O)(=O)c2ccc(F)cc2)cc(OC)c1 | 0.4 | 10 | 10 |

Second part, the molecule after the results:

| IC50 [1] [µM] | IC50 [2] [µM] | IC50 [3] [µM] | SMILES |
| --- | --- | --- | --- |
| 0.788 | 0.185 | 0.023 | CC(=O)Nc1nc2ccc(-c3nn(Cc4cc5ccccc5nc4N4CCN(C)CC4)c4ncnc(N)c34)cc2s1 |
| 0.137 | 0.004 | 0.009 | CN1CCN(c2nc3ccccc3cc2Cn2nc(-c3ccc4nc(N)sc4c3)c3c(N)ncnc32)CC1 |
| 3.44 | 20 | 4.23 | COc1ccccc1-n1c(SCC(=O)Nc2ccc3nccnc3c2)nc2c(c1=O)CCCC2 |
